PMC8214221, “Sequence determinants in the cathelicidin LL-37 that promote inflammation via presentation of RNA to scavenger receptors” (The Journal of Biological Chemistry, 2021)
Residues, ends and D or L forms follow the SMILES beside them.

Experiments:
[1] = test system: normal human epidermal keratinocytes (NHEKs); test: LDH release cytotoxicity assay in keratinocytes; assay type: cell-based; conditions: minimal concentration giving 50% LDH release by NHEKs
Procedure, shortened: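 Normal human epidermal keratinocytes were exposed to LL-34 parent and alanine-substituted peptides. Cytotoxicity was read as LDH release in fresh culture supernatants after treatment, using a commercial kit, and reported as the minimal concentration showing toxicity.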

Escherichia coli = test: Bacterial growth inhibition (OD600), E. coli; assay type: cell-based; conditions: 0-50 µM overnight, OD 600, n = 3
Procedure: (§1) We further looked at mRNA abundance by quantitative RT-PCR (qRT-PCR) to evaluate gene expression for type 1 interferon IFNB1, chemokine CXCL10, and cytokines TSLP and IL6 in NHEKs treated with selected LL-34 parent, LL-34—F5A, I24A, F27A, and L31A—peptides either alone or in combination with U1 dsRNA for 18 h (Fig. 1, E–H).
(§2) Methicillin-resistant S. aureus USA300 and methicillin-sensitive S. aureus SA113 (American Type Culture Collection 35556) were cultured in 3% tryptic soy broth overnight at 37 °C with shaking at 250 rpm. GAS M49 strain NZ131 was cultured in Todd Hewitt broth supplemented with 1% yeast extract overnight at 37 °C without shaking. E. coli R1 strain RS218 was cultured in LB broth overnight at 37 °C with shaking at 250 rpm. MIC values were determined using a round-bottom 96-well microdilution method with RPMI cell culture media (as a source of Ca^2+ and Mg^2+) supplemented with tryptic soy broth, Todd Hewitt broth/yeast extract, or LB to facilitate growth of the respective bacterial strains. Overnight bacterial cultures were subcultured into fresh broth and grown to midlate log phase indicated by an absorbance at 600 nm value between 0.8 and 1.0 for each bacterial strain. The absorbance was then normalized to provide a concentration of 1 × 10^7 colony-forming units/ml in RPMI medium. The LL-34 parent and alanine scan mutants were serially diluted into the 96-well microtiter plates containing prewarmed RPMI bacterial growth medium. A 10 μl aliquot of the midlate log phase bacteria was inoculated into the 96-well microtiter plates that contained 95 μl of RPMI medium with or without the LL-34 peptide dilutions and incubated for 16 to 18 h at […] with shaking at 200 rpm. Inhibition of growth was determined by measuring the absorbance at 600 nm readings of each well using a microplate reader (Infinite M200 Pro; Tecan). The MIC of each bacterial strain was determined by the lowest peptide concentration that inhibited more than 80% bacterial growth.
(§3) (A) NHEKs and HDMECs (B) were treated with LL34- parent peptide and all the 34 alanine substituted peptides (Pep L1A-Pep R34A) and LL37 at 2 µM for 16 h. IL-6 protein secretion was assessed with ELISA (n=3) (C-F) LL34-Parent, LL34 F5A, LL34 I24A, LL34 F27A, and LL34 L31A peptides were incubated with S. aureus USA 300, S. aureus SA113, Group A Streptococcus (GAS) and E. coli at increasing concentrations (0-50 µM) overnight, and bacterial culture growth was assayed as absorbance at OD 600 (n=3).

[2] = test system: S. aureus strain USA300 and SA112, GAS; test: Bacterial growth inhibition (OD600), Gram-positive strains; assay type: cell-based, Staphylococcus aureus; group A Streptococcus; conditions: 0-50 µM overnight, OD 600, n = 3, S. aureus USA300, SA113 (SA112 in text)
Procedure: as §1, §2, §3

[3] = test system: NHEKs, IL6, IFNB1, TSLP, CXCL10 mRNA; test: qRT-PCR gene expression in NHEKs; assay type: cell-based, human; conditions: 18 h / 8 h (Fig. 1 legend), n = 3
Procedure: Protein levels of human IL-6 were analyzed from cell supernatant with ELISA (n = 3). Corresponding MIC values of LL-34 peptides L1A–R34A against Staphylococcus aureus USA300 are shown in the heat map. B, human dermal endothelial cells (HDMECs) were treated with either U1 dsRNA (2.5 μg/ml) or a combination of U1 dsRNA (2.5 μg/ml) and LL-34 peptides (Pep 1–Pep 34 and Pep–parent LL-34) at 2 μM for 18 h. IL-6 ELISA results are shown (n = 3). Green bars denote loss of IL-6 protein secretion compared with parent control shown in red. C, helical wheel plot for LL-34. Amino acids with green circles denote specific residues where replacement with an alanine caused the loss of IL-6 secretion compared with parent LL-34 peptide in NHEKs cotreated with U1 dsRNA. D, in the helical wheel plot for LL-34, circled green amino acids indicate that a substitution caused a loss of vetting in HDMEC. E–H, NHEKs were treated with LL-34-parent peptide (LL-34-P), LL-34-F5A, LL-34-I24A, LL-34-F27A, and LL-34-L31A at 2 μM, either individually or in combination with U1 dsRNA (2.5 μg/ml) for 8 h. Gene expression of IL-6, IFNB1, TSLP, and CXCL10 was assessed with qRT-PCR. GAPDH was used as a reference gene (n = 3) (∗p < 0.05; ∗∗∗∗p < 0.0001). One way-ANOVA was used. IL-6, interleukin 6; LL-34, 34-amino acid peptide; MIC, minimum inhibitory concentration, ns, not significant.
as §1
RNA extracted from cells (Pure Link RNA Isolation Kit; Life Technologies) was quantified on the Nanodrop 2000/200C Spectrophotometer (Thermo Fisher Scientific). About 500 ng of purified RNA was used to synthesize complementary DNA with iScript cDNA Synthesis Kit (Bio-Rad). Predeveloped Taqman (Thermo Fisher Scientific) gene expression assays were used to evaluate mRNA transcript levels. Taqman cycling conditions were used as previously described ([9], [45]). All experiments were performed on a CFX96 system (Bio-Rad). Fold change relative to GAPDH was calculated using the Livak ΔΔCt method ([46]).

[4] = test system: NHEKs, IL-6 secretion in response to U1 dsRNA; test: IL-6 secretion ELISA in NHEKs; assay type: cell-based, human; conditions: U1 dsRNA 2.5 μg/ml + peptide 2 μM, 18 h, n = 3
Procedure, shortened: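 NHEKs (also HDMECs) exposed to LL-34 parent or alanine-scan peptides at 2 μM, alone or with U1 dsRNA (2.5 μg/ml), for 18 h. Secreted IL-6 in supernatant quantified by sandwich ELISA (n = 3).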

[5] = test system: U1 dsRNA binding on the surface of NHEKs; test: Surface binding of Alexa 488-labeled U1 dsRNA to NHEKs; assay type: cell-based, human; conditions: Alexa 488 U1 0.05-10 μg/ml + peptide 2.5 μM, 10 min on ice; fluorometer RFU, n = 3
Procedure: We also assayed the dynamics of binding of U1 dsRNA on the surface of NHEKs in the presence of LL-34 mutant peptides. NHEKs were exposed to fluorescent Alexa 488–labeled U1 at increasing concentrations (0.05–10 μg/ml) and LL-34 parent peptide, LL-34 I24A, LL-34 L31A, LL-34 K25A, and LL-34 proline at isoleucine position 20 (I20P) for 10 min on ice to allow for surface binding of U1 to cells in the presence of peptides (Fig. 5A).
Figure 5 Biophysical properties of binding of U1 dsRNA to LL-34 peptides and SRB1 protein.A, NHEKs were treated with Alexa 488–labeled U1 dsRNA or a combination of Alexa 488–labeled U1 dsRNA (0.05–10 μg/ml) and LL-34 peptides LL-34 parent, LL-34 I24A, LL-34 K25A, LL-34 L31A, and LL-34 I20P at 2.5 μM as shown. The cells were prechilled on ice for 15 min before the addition of U1 dsRNA and/or LL-34 peptides, and the surface binding of U1 dsRNA was allowed for 10 min. The amount of U1 dsRNA binding to NHEKs was assessed with a fluorometer, and data are represented as relative fluorescence units (RFUs) (n = 3). B, NHEKs were similarly treated with Alexa-labeled U1 dsRNA (1.5 μg/ml) and/or unlabeled U1 dsRNA (15 μg/ml) with the addition of LL-34 parent peptide at 2.5 μM. The experiment was performed on ice for 10 min, and the relative binding of Alexa 488 U1 dsRNA was assessed on a fluorometer and is shown as RFU (n = 3) (∗p < 0.05) one-way ANOVA. C, SAXS spectra of LL-34 peptides LL-34 parent, LL-34 F5A, LL-34 I24A, and LL-34 L31A incubated with U1 dsRNA. The peptide-U1 dsRNA (P/R) ratio is varied at 1 and 2 for all conditions. The U1 dsRNA interhelical spacing (Q) was calculated by the peak position. The domain size (L) was calculated by the full width at half maximum of the first peak. LL-34, 34-amino acid peptide; NHEKs, normal human epidermal keratinocytes; SAXS, small-angle X-ray scattering.

CC[C@H](C)[C@H](NC(=O)[C@H](CCCCN)NC(=O)[C@H](CCC(=O)O)NC(=O)[C@H](CCCCN)NC(=O)[C@H](CO)NC(=O)[C@H](CCCCN)NC(=O)[C@H](CCCNC(=N)N)NC(=O)[C@H](Cc1ccccc1)NC(=O)[C@H](Cc1ccccc1)NC(=O)[C@H](CC(=O)O)NC(=O)CNC(=O)[C@H](CC(C)C)NC(=O)[C@@H](N)CC(C)C)C(=O)NCC(=O)N[C@@H](CCCCN)C(=O)N[C@@H](CCC(=O)O)C(=O)N[C@@H](Cc1ccccc1)C(=O)N[C@@H](CCCCN)C(=O)N[C@@H](CCCNC(=N)N)C(=O)N[C@H](C(=O)N[C@H](C(=O)N[C@@H](CCC(N)=O)C(=O)N[C@@H](CCCNC(=N)N)C(=O)N[C@H](C(=O)N[C@@H](CCCCN)C(=O)N[C@@H](CC(=O)O)C(=O)N[C@@H](C)C(=O)N[C@@H](CC(C)C)C(=O)N[C@@H](CCCNC(=N)N)C(=O)N[C@@H](CC(N)=O)C(=O)N[C@@H](CC(C)C)C(=O)N[C@H](C(=O)N1CCC[C@H]1C(=O)N[C@@H](CCCNC(=N)N)C(=O)O)C(C)C)[C@@H](C)CC)C(C)C)[C@@H](C)CC [LL-34—F27A] (H-LLGDFFRKSKEKIGKEFKRIVQRIKDALRNLVPR-OH)
Minimal cytotoxic concentration in NHEK (LD50) [1]: 10 µM
Action against Gram-negative E. coli (Escherichia coli): little action
Capacity to inhibit growth of Gram-positive bacteria [2]: increased capacity to inhibit growth of most of the tested Gram-positive bacteria
Gene expression of IL6, IFNB1, and CXCL10, cotreatment with U1 dsRNA ([3]; U1 dsRNA 2.5 μg/ml + peptide 2 μM): reduction in gene expression
Gene expression of TSLP, peptide alone ([3]; peptide 2 μM alone, GAPDH reference): increased gene expression of TSLP
Basal expression of IL6, IFNB1, and CXCL10, peptide alone ([3]; peptide 2 μM alone): not affected
IL-6 protein secretion, cotreatment with U1 dsRNA, vs U1 dsRNA + LL-34 parent [4]: reduced secretion of IL-6 protein

CC[C@H](C)[C@H](NC(=O)[C@H](CCCCN)NC(=O)[C@H](CCC(=O)O)NC(=O)[C@H](CCCCN)NC(=O)[C@H](CO)NC(=O)[C@H](CCCCN)NC(=O)[C@H](CCCNC(=N)N)NC(=O)[C@H](Cc1ccccc1)NC(=O)[C@H](Cc1ccccc1)NC(=O)[C@H](CC(=O)O)NC(=O)CNC(=O)[C@H](CC(C)C)NC(=O)[C@@H](N)CC(C)C)C(=O)NCC(=O)N[C@@H](CCCCN)C(=O)N[C@@H](CCC(=O)O)C(=O)N[C@@H](Cc1ccccc1)C(=O)N[C@@H](CCCCN)C(=O)N[C@@H](CCCNC(=N)N)C(=O)N[C@H](C(=O)N[C@H](C(=O)N[C@@H](CCC(N)=O)C(=O)N[C@@H](CCCNC(=N)N)C(=O)N[C@H](C(=O)N[C@@H](C)C(=O)N[C@@H](CC(=O)O)C(=O)N[C@@H](Cc1ccccc1)C(=O)N[C@@H](CC(C)C)C(=O)N[C@@H](CCCNC(=N)N)C(=O)N[C@@H](CC(N)=O)C(=O)N[C@@H](CC(C)C)C(=O)N[C@H](C(=O)N1CCC[C@H]1C(=O)N[C@@H](CCCNC(=N)N)C(=O)O)C(C)C)[C@@H](C)CC)C(C)C)[C@@H](C)CC [LL-34—K25A] (H-LLGDFFRKSKEKIGKEFKRIVQRIADFLRNLVPR-OH)
Minimal cytotoxic concentration in NHEK (LD50) [1]: 10 µM
Binding of Alexa 488-labeled U1 dsRNA on the NHEK cell surface [5]: enhanced binding of U1 on the cell surface
